Data taken from article PMC9775004 (Biosensors, 2022).

test system: PaLldR; test: Fluorescence-based thermal shift (FTS) assay with PaLldR; format: binding, Pseudomonas aeruginosa PAO1; conditions: 1 mM compound, 10 μM LldR
Method: (§1) The gene STlldR encoding LldR of S. Typhimurium LT2 (STLldR) was amplified from genome of the strain, and then ligated into the plasmid pET28a to construct pET28a-STlldR. The recombinant plasmid pET28a-STlldR was transformed into E. coli BL21 (DE3) for STLldR expression. The expression strain was cultured in LB medium at 37 °C until an optical density at 600 nm (OD600) of 0.6 and induced with 1 mM isopropyl-β-D-thiogalactoside (IPTG) at 16 °C for 12 h. […] The purified STLldR was analyzed by 13% sodium dodecyl sulfate-polyacrylamide gel electrophoresis (SDS-PAGE). The protein concentration was determined using a Bradford protein assay kit (Sangon, Shanghai, China), and stored at –80 °C. […]
(§2) FTS assays were performed using a LightCycler 480 system (Roche, Indianapolis, IN, USA) with the filter set to excitation wavelength 465 nm and emission wavelength 580 nm for SYPRO orange. […] The melting temperature (Tm) of LldR was calculated from the negative first derivative value of the raw fluorescence data. Thermal shift temperature (ΔTm) was calculated by subtracting the Tm of the control from the Tm of LldR with the addition of different compounds. […]

Row | Structure (SMILES) | change in Tm (ΔTm) of PaLldR
1 | C[C@@H](O)C(=O)O [D-lactate] | significant changes in Tm
2 | C[C@H](O)C(=O)O [L-lactate] | significant changes in Tm

test system: PfLldR; test: Fluorescence-based thermal shift (FTS) assay with PfLldR; format: binding, P. fluorescens A506; conditions: 1 mM compound, 10 μM LldR
Method: as §1, §2

Row | Structure (SMILES) | change in Tm (ΔTm) of PfLldR
3 | C[C@@H](O)C(=O)O [D-lactate] | significant changes in Tm
4 | C[C@H](O)C(=O)O [L-lactate] | significant changes in Tm

target: T1, EcLldR (Escherichia coli, UniProt P0ACL7); test: Fluorescence-based thermal shift (FTS) assay with EcLldR; format: binding, E. coli MG1655; conditions: 1 mM compound, 10 μM LldR
T1 construct: His tag (inferred from pET28a and HisTrap purification); made in house; host or cells: E. coli BL21 (DE3)
T1 sequence (P0ACL7 whole entry): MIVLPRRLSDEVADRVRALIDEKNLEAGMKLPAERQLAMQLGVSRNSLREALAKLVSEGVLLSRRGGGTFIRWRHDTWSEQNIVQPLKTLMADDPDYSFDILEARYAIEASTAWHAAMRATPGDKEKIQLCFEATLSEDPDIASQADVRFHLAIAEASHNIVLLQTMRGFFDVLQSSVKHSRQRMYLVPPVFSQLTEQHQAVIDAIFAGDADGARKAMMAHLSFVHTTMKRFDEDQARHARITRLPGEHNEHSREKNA
Method: as §1, §2

Row | Structure (SMILES) | change in Tm (ΔTm) of EcLldR
5 | C[C@@H](O)C(=O)O [D-lactate] | significant changes in Tm
6 | C[C@H](O)C(=O)O [L-lactate] | significant changes in Tm

test system: FILLac10N0C; test: FRET emission ratio (Venus to mTFP) response of purified FILLac10N0C; format: binding, Salmonella enterica serovar Typhimurium LT2; conditions: not given
Method: The FILLac expression vectors were constructed based on the plasmid pETDuet-mTFP-Venus carrying mTFP gene and Venus gene. The original STlldR gene, its truncated variants or variants with artificial linkers were inserted between the mTFP gene and Venus gene by T5 exonuclease DNA assembly method (TEDA) to construct pETDuet-FILLac0N0C and its variants.
The purified FILLac and different compounds were diluted with 50 mM Tris-HCl buffer (pH 7.4), and then mixed at a volume ratio of 3:1 into a black 96-well microplate for a total detection volume of 100 μL. The final concentration of FILLac in the reaction mixture was 1 μM. The fluorescence intensities of FILLac at 485 nm (mTFP) and 528 nm (Venus) were detected by using an EnSight multifunctional microplate detector (PerkinElmer, USA) with excitation at 430 nm. […] The maximum ratio changes (ΔRmax) were calculated according to the following formula:(2) ΔRmax=−Rmax−Rmin/Rmin. […]

Row | Structure (SMILES) | fluorescence emission ratio change of FILLac10N0C (specificity analysis)
7 | [K+] [K^+] | did not change the emission ratio
8 | O=C(O)CCC(=O)O [succinate] | did not change the emission ratio

same assay, conditions: 50 μM compound

Row | Structure (SMILES) | fluorescence emission ratio change of FILLac10N0C (specificity analysis)
9 | O=C(O)CCC(=O)C(=O)O [2-ketoglutarate] | did not change the emission ratio
10 | [Ca+2] [Ca^2+] | did not change the emission ratio
11 | O=C(O)CC[C@@H](O)C(=O)O [D-2-hydroxyglutarate] | did not change the emission ratio
12 | O=C(O)C[C@@H](O)C(=O)O [D-malate] | did not change the emission ratio
13 | O=C(O)CC[C@H](O)C(=O)O [L-2-hydroxyglutarate] | did not change the emission ratio
14 | N[C@@H](CCC(=O)O)C(=O)O [L-glutamate] | did not change the emission ratio
15 | O=C(O)C[C@H](O)C(=O)O [L-malate] | did not change the emission ratio
16 | [Mg+2] [Mg^2+] | did not change the emission ratio
17 | N [NH4^+] | did not change the emission ratio
18 | [Na+] [Na^+] | did not change the emission ratio
19 | CC(=O)O [acetate] | did not change the emission ratio
20 | O=C(O)/C=C(/CC(=O)O)C(=O)O [cis-aconitate] | did not change the emission ratio
21 | O=C(O)CC(O)(CC(=O)O)C(=O)O [citrate] | did not change the emission ratio
22 | O=C(CO)[C@@H](O)[C@H](O)[C@H](O)CO [fructose] | did not change the emission ratio
23 | O=C(O)/C=C/C(=O)O [fumarate] | did not change the emission ratio
24 | OC[C@H]1OC(O)[C@H](O)[C@@H](O)[C@@H]1O (stereo partly shown) [glucose] | did not change the emission ratio
25 | O=CC(=O)O [glyoxylate] | did not change the emission ratio
26 | O=C(O)CC(=O)C(=O)O [oxaloacetate] | did not change the emission ratio
27 | CC(=O)C(=O)O [pyruvate] | did not change the emission ratio

same assay, conditions: 50 μM of the compound present in the L-lactate dose-response

Row | Structure (SMILES) | effect on detection of L-lactate by FILLac10N0C
28 | CC(=O)C(=O)O [pyruvate] | not affected
